{
  "source": "patent US8247380B2",
  "about": "“Alpha 1-acid glycoprotein, alpha 2-HS glycoprotein, alpha 1-antitrypsin, and fragments thereof induce apoptosis in cancer cell lines” (Ambryx Biotechnology, D.C., priority 1997, dated 2012)",
  "molecules": {"B1": {"name": "alpha 2-HS glycoprotein (without zinc): alpha 2-HS glycoprotein pre-incubated with EDTA without recharging with zinc (protein, UniProt P02765 19-300; P02765 341-367, looked up)", "Alpha-2-HS-glycoprotein chain … 1": "APHGPGLIYRQPNCDDPETEEAALVAIDYINQNLPWGYKHTLNQIDEVKVWPQQPSGELFEIEIDTLETTCHVLDPTPVARCSVRQLKEHAVEGDCDFQLLKLDGKFSVVYAKCDSSPDSAEDVRKVCQDCPLLAPLNDTRVVHAAKAALAAFNAQNNGSNFQLEEISRAQLVPLPPSTYVEFTVSGTDCVAKEATEAAKCNLLAEKQYGFCKATLSEKLGGAEVAVTCMVFQTQPVSSQPQPEGANEAVPTPVVDPDAPPSPPLGAPGLPPAGSPPDSHVL", "Alpha-2-HS-glycoprotein chain … 2": "TVVQPSVGAAAGPVVPPCPGRIRHFKV", "modifications": "EDTA treated", "notes": "alpha 2-HS glycoprotein pre-incubated with EDTA without recharging with zinc"}, "B2": {"name": "calcium charged alpha 2-HS glycoprotein: alpha 2-HS glycoprotein pre-incubated with EDTA and recharged with calcium (protein, UniProt P02765 19-300; P02765 341-367, looked up)", "Alpha-2-HS-glycoprotein chain … 1": "B1 Alpha-2-HS-glycoprotein chain … 1", "Alpha-2-HS-glycoprotein chain … 2": "TVVQPSVGAAAGPVVPPCPGRIRHFKV", "modifications": "calcium charged"}, "B3": {"name": "Fetuin purchased from Sigma: commercial fetuin prepared by ammonium sulfate precipitation and EDTA treatment (protein, UniProt P12763 19-359, looked up)", "Alpha-2-HS-glycoprotein": "IPLDPVAGYKEPACDDPDTEQAALAAVDYINKHLPRGYKHTLNQIDSVKVWPRRPTGEVYDIEIDTLETTCHVLDPTPLANCSVRQQTQHAVEGDCDIHVLKQDGQFSVLFTKCDSSPDSAEDVRKLCPDCPLLAPLNDSRVVHAVEVALATFNAESNGSYLQLVEISRAQFVPLPVSVSVEFAVAATDCIAKEVVDPTKCNLLAEKQYGFCKGSVIQKALGGEDVRVTCTLFQTQPVIPQPQPDGAEAEAPSAVPDAAGPTPSAAGPPVASVVVGPSVVAVPLPLHRAHYDLRHTFSGVASVESSSGEAFHVGKTPIVGQPSIPGGPVRLCPGRIRYFKI"}, "B4": {"name": "supercharged zinc fetuin: Section 4A fetuin stripped of ions with EDTA and reloaded with 0.5 M Zinc Acetate (protein, UniProt P12763 19-359, looked up)", "Alpha-2-HS-glycoprotein": "B3 Alpha-2-HS-glycoprotein", "modifications": "zinc charged", "notes": "Section 4A fetuin stripped of ions with EDTA and reloaded with 0.5 M Zinc Acetate"}, "B5": {"name": "natural fetuin: natural fetuin whose carbohydrate moiety was removed by certain enzymes (protein, UniProt P12763 19-359, looked up)", "Alpha-2-HS-glycoprotein": "B3 Alpha-2-HS-glycoprotein", "modifications": "deglycosylated", "notes": "natural fetuin whose carbohydrate moiety was removed by certain enzymes"}, "B6": {"name": "Fetuin-Ca: fetuin bound with calcium (protein, UniProt P12763 19-359, looked up)", "Alpha-2-HS-glycoprotein": "B3 Alpha-2-HS-glycoprotein", "modifications": "calcium bound"}, "B7": {"name": "E. Coli-expressed fetuin: recombinant bovine fetuin expressed in E. Coli (protein, UniProt P12763 19-359, looked up)", "Alpha-2-HS-glycoprotein": "B3 Alpha-2-HS-glycoprotein", "modifications": "expressed in E. coli"}},
  "key": {"[1]": {"test_system": "HT-29 (human colon adenocarcinoma)", "experiment": "Apoptosis assay, HT-29 cells", "conditions": "for apoptotic activity / morphology (in words): 5 μM, 4 hours", "experimental": "Prostate cancer cell line LNCAP was routinely used for the isolation of Apogen P-1 and Apogen P-2, whereas leukemia cell line HL-60 was used for the isolation of Apogen L. The methods of assays were as follows: LNCAP or HL-60 (1,000 cells) was seeded in 10 microliters RPMI containing 15% or 20% Fetal bovine serum, penicillin and streptomycin at 37 degrees, 5% CO2 in Microtray plates (25 μl wells, Robbins Scientific Corp.). The tested sample (10 μl) was added 3-4 hours after cells were seeded. After incubation of the tested sample with cells for 15 hours, two microliters of Hoechst dye (0.03 ng/ml in PBS) was added. Two hours later, cells that were stained with Hoechst dye were examined under fluorescence microscope. […] The percentage of apoptotic cells was calculated by the following equation:\nThe DNA condensation, DNA fragmentation and peripheral crescents of the nuclei are characteristics of a cell under apoptosis."}, "[2]": {"test_system": "cancer cell lines", "experiment": "Apoptosis assay, cancer cells (cell line not given)", "format": "cell-based"}, "[3]": {"test_system": "LNCaP (prostate cancer) cells", "experiment": "Cell death (apoptosis) assay, LNCaP cells", "format": "cell-based, human", "conditions": "for apoptotic activity / membrane blebbing (in words): chemically synthesized peptide, three (3) hours of incubation", "procedure": "[…] The free Zinc Acetate and Barium Acetate were removed by repetitive concentration. Fetuin was tested in LNCaP and HL-60 cells. […] Fetuin (in 10 μl PBS) at concentration of 100 ng/ml was added 3-4 hours after the cells were seeded."}, "[4]": {"test_system": "CCD-18 Co (human normal colon fibroblast)", "experiment": "Apoptosis assay, CCD-18 Co cells", "format": "cell-based", "conditions": "various concentrations of SEQ ID NO: 1", "source_text": "Zinc charged alpha 1-acid glycoprotein has no effect on CCD 18Co cells (human normal colon fibroblast)."}, "[5]": {"conditions": "various concentrations of SEQ ID NO: 1"}},
  "note": "No end group written: not given here.",
  "data": [
    {"molecule": "calcium charged alpha 1-antitrypsin: alpha 1-antitrypsin pre-incubated with EDTA and recharged with calcium [reference compound]", "values": [
      {"measurement": "apoptotic activity / morphology (in words)", "setting": "[1]", "value": "no apoptotic activity was seen"}
    ]},
    {"molecule": "alpha 1-acid glycoprotein purchased from Sigma, after zinc charging: commercial alpha 1-acid glycoprotein after zinc charging", "values": [
      {"measurement": "induction of apoptosis in cancer/tumor cell lines (in words)", "setting": "[2]", "value": "contained the same activity"}
    ]},
    {"molecule": "calcium charged alpha 1-acid glycoprotein: alpha 1-acid glycoprotein pre-incubated with EDTA and recharged with calcium [reference compound]", "values": [
      {"measurement": "apoptotic activity / morphology (in words)", "setting": "[1]", "value": "no apoptotic activity was seen"}
    ]},
    {"molecule": "HTFSGVASVE [SEQ ID NO: 1, H-T-F-S-G-V-A-S-V-E]", "values": [
      {"measurement": "apoptotic activity / membrane blebbing (in words)", "setting": "[3]", "value": "caused membrane “blebbing”"},
      {"measurement": "potency relative to fetuin prepared from other methods", "setting": "[3]; estimate", "value": "several thousand times"},
      {"measurement": "potency relative to Supercharged Zinc Fetuin", "setting": "[3]; estimate, see FIG. 13", "value": "eight to ten times"},
      {"measurement": "induction of apoptosis (in words)", "setting": "[3]; [5]", "value": "induced apoptosis"},
      {"measurement": "induced apoptosis", "setting": "[1]; 0.4 μM, four (4) hours", "value": 52, "unit": "%"},
      {"measurement": "cells induced to apoptosis (in words)", "setting": "[1]; 0.4 μM, six (6) hours", "value": "almost all"},
      {"measurement": "induction of apoptosis (in words)", "setting": "[1]; [5]", "value": "induced apoptosis"},
      {"measurement": "induction of apoptosis (in words)", "setting": "[4]", "value": "without affecting"}
    ]},
    {"molecule": "alpha 1-acid glycoprotein (without zinc): alpha 1-acid glycoprotein pre-incubated with EDTA without recharging with zinc [reference compound]", "values": [
      {"measurement": "apoptotic activity / morphology (in words)", "setting": "[1]", "value": "no apoptotic activity was seen"},
      {"measurement": "induction of apoptosis in cancer/tumor cell lines (in words)", "setting": "[2]", "value": "failed to induce apoptosis"}
    ]},
    {"molecule": "alpha 1-antitrypsin (without zinc): alpha 1-antitrypsin pre-incubated with EDTA without recharging with zinc [reference compound]", "values": [
      {"measurement": "apoptotic activity / morphology (in words)", "setting": "[1]", "value": "no apoptotic activity was seen"},
      {"measurement": "induction of apoptosis in cancer/tumor cell lines (in words)", "setting": "[2]", "value": "failed to induce apoptosis"}
    ]},
    {"molecule": "S-A-S-G-E-A-F-H (SASGEAFH; Polypeptide fragment from treatment of fetuin from bovine sera as described in the specification.) [SEQ ID NO: 2, chemically synthesized bovine fetuin fragment, amino acid no; 310-317]", "values": [
      {"measurement": "apoptotic activity / membrane blebbing (in words)", "setting": "[3]", "value": "did not show any apoptotic activity"}
    ]},
    {"molecule": "B1", "values": [
      {"measurement": "apoptotic activity / morphology (in words)", "setting": "[1]", "value": "no apoptotic activity was seen"},
      {"measurement": "induction of apoptosis in cancer/tumor cell lines (in words)", "setting": "[2]", "value": "fails to induce apoptosis"}
    ]},
    {"molecule": "B2", "values": [
      {"measurement": "apoptotic activity / morphology (in words)", "setting": "[1]", "value": "no apoptotic activity was seen"}
    ]},
    {"molecule": "B3", "values": [
      {"measurement": "concentration at which apoptosis inducing activity was observed", "setting": "[3]; long incubation time (2 days)", "value": "> 250", "unit": "µg/mL"},
      {"measurement": "concentration at which apoptosis was induced", "setting": "[3]; long incubation time (2 days)", "value": "> 5", "unit": "mM"},
      {"measurement": "induction of apoptosis in cancer/tumor cell lines (in words)", "setting": "[2]", "value": "very low activity"}
    ]},
    {"molecule": "B4", "values": [
      {"measurement": "enhancement of ability to induce apoptosis versus original fetuin bound with zinc (Section 4A)", "setting": "[3]; from LD50 on LNCaP cells incubated for 6 hours", "value": "three to four times"}
    ]},
    {"molecule": "B5", "values": [
      {"measurement": "boost of apoptotic inducing activity when carbohydrate moiety removed by certain enzymes", "setting": "[2]", "value": "2-3 fold"}
    ]},
    {"molecule": "B6", "values": [
      {"measurement": "induction of apoptosis in cancer/tumor cell lines (in words)", "setting": "[2]", "value": "inactive in inducing apoptosis"}
    ]},
    {"molecule": "B7", "values": [
      {"measurement": "apoptotic activity relative to supercharged zinc fetuin (Section 4F)", "setting": "[2]", "value": "about 5 times"}
    ]}
  ]
}
